Measurements reported in US20260256794A1, “Oral Dynamine Formulations and Methods Therefor” (Ortho-Nutra, LLC, priority 2023, published 2026).

Columns and labels:
Type in all cases: in vivo, human
subjects [1] = test: VAS-Mental Stamina; parameters: VAS-Mental Stamina rating, Mean / VAS-Mental Stamina changes from baseline, Mean Difference ± SE / VAS-Mental Stamina area under the curve, Mean Difference ± SE / VAS-Mental Stamina area under the curve, Mean: scale not given here
Experimental: (§1) The inventors have discovered various compositions and methods of improving various indices of neurological and neuroenergetic functions by administering 100 mg (once daily) dosages of DYNAMINE™ (dosage between 1.0 and 1.4 mg/kg) as described in the following:
(§2) All neuroenergetic tests as listed below were performed and data were collected after 0 and 4 days of assigned supplements (with acute effects also measured at day 4 over 180 minutes):
(§3) All VAS Measurement (Energy, Sustained Energy, Mental Stamina, Ability to Focus, Ability to Concentrate, Motivation to Accomplish Difficult Tasks, Drive, Vigor, Level of Positive Outlook, Mood, Feelings of Well-Being, Tolerate Stress); Day 0: Two tests were completed. The average of both scores was computed and this value was used in all statistical analysis. Day 4 (0 minutes after ingesting dose #4): Two tests were completed. The average of both scores was computed and this value was used in all statistical analysis. Day 4 (60, 120, and 180 minutes after ingesting dose #4): One test was completed at each time point.
(§4) Neuroenergic parameters are inherently subjective, nevertheless significant in human behavior and well-being. To allow for a standardization among different subjects, the following experiments were performed using a visual analog scale using anchor statements (lowest possible/highest possible) in which subjects were asked to rate their subjective experience with respect to the specific neuroenergic parameters tested.
VAS-Mental Stamina: In this subjective test, subjects were asked to rate their personal level of energy on a VAS scale using the prompt of “My level of mental stamina right now is . . . ” (with rating lowest possible to highest possible)”. Results were collected as noted above and Table 10 provides exemplary results for Day 0 versus Day 4 ratings, whereas Table 11 provides exemplary acute results measured at Day 4 over a duration of 180 minutes.

subjects [2] = test: VAS-Motivation; parameters: VAS-Motivation rating, Mean / VAS-Motivation changes from baseline, Mean Difference ± SE / VAS-Motivation area under the curve, Mean Difference ± SE / VAS-Motivation area under the curve, Mean: scale not given here
Experimental: as §1, §2, §3, §4
VAS-Motivation: In this subjective test, subjects were asked to rate their personal level of energy on a VAS scale using the prompt of “My motivation to accomplish difficult tasks right now is . . . ” (with rating lowest possible to highest possible)”. Results were collected as noted above and Table 19 provides exemplary results for Day 0 versus Day 4 ratings, whereas Table 20 provides exemplary acute results measured at Day 4 over a duration of 180 minutes.

subjects [3] = test: VAS-Sustained Energy; parameters: VAS-Sustained Energy rating, Mean / VAS-Sustained Energy changes from baseline, Mean Difference ± SE / VAS-Sustained Energy Δ, Mean Difference ± SE / VAS-Sustained Energy area under the curve, Mean Difference ± SE / VAS-Sustained Energy area under the curve, Mean: scale not given here; conditions: for VAS-Sustained Energy Δ, effect size d / VAS-Sustained Energy Δ from 0 min, Mean / VAS-Sustained Energy Δ, Mean Difference ± SE: females; for VAS-Sustained Energy Δ, effect size d: vs placebo; for VAS-Sustained Energy Δ, Mean Difference ± SE: B vs A (placebo)
Experimental: as §1, §2, §3, §4
VAS-Sustained Energy: In this subjective test, subjects were asked to rate their personal level of energy on a VAS scale using the prompt of “My level of sustained energy right now is . . . ” (with rating lowest possible to highest possible)”. Results were collected as noted above and Table 6 provides exemplary results for Day 0 versus Day 4 ratings, whereas Table 7 provides exemplary acute results measured at Day 4 over a duration of 180 minutes.

subjects [4] = test: VAS-Mood; parameters: VAS-Mood rating, Mean / VAS-Mood changes from baseline, Mean Difference ± SE / VAS-Mood area under the curve, Mean Difference ± SE / VAS-Mood area under the curve, Mean: scale not given here
Experimental: as §1, §2, §3, §4
VAS-Mood: In this subjective test, subjects were asked to rate their personal level of energy on a VAS scale using the prompt of “My mood right now is . . . ” (with rating lowest possible to highest possible)”. Results were collected as noted above and Table 31 provides exemplary results for Day 0 versus Day 4 ratings, whereas Table 32 provides exemplary acute results measured at Day 4 over a duration of 180 minutes.

[5] = 100 mg once daily, Day 4, 0-180 min
[6] = 100 mg once daily, Day 4, 0-180 min, vs Group A (placebo)
[7] = 100 mg once daily, Day 4, 0 min after dose #4
[8] = 100 mg once daily, Day 4, 60 min-0 min, vs Group A (placebo)
[9] = 100 mg once daily, Day 4, 60 min after dose #4
[10] = 100 mg once daily, Day 4, 120 min-0 min, vs Group A (placebo)
[11] = 100 mg once daily, Day 4, 120 min after dose #4
[12] = 100 mg once daily, Day 4, 180 min-0 min, vs Group A (placebo)
[13] = 100 mg once daily, Day 4, 180 min after dose #4
[14] = 100 mg once daily, Day 4, Δ @ 60 min
[15] = 100 mg once daily, Day 4, Δ @ 120 min
[16] = 100 mg once daily, Day 4, Δ @ 180 min

COc1nc2c(c(=O)n1C)n(C)c(=O)n2C [methylliberine, 2-methoxy-1,7,9-trimethylpurine-6,8-dione]
VAS-Mental Stamina area under the curve, Mean (subjects [1]; [5]): 1133
VAS-Mental Stamina area under the curve, Mean Difference ± SE (subjects [1]; [6]): 59.2 ± 46.2
VAS-Mental Stamina area under the curve, effect size d (subjects [1]; [6]): 0.18
VAS-Mental Stamina rating, Mean (subjects [1]; [7]): 6.0
VAS-Mental Stamina changes from baseline, Mean Difference ± SE (subjects [1]; [8]): −0.12 ± 0.22
VAS-Mental Stamina changes from baseline, effect size d (subjects [1]; [8]): −0.15
VAS-Mental Stamina rating, Mean (subjects [1]; [9]): 6.3
VAS-Mental Stamina changes from baseline, Mean Difference ± SE (subjects [1]; [10]): −0.21 ± 0.28
VAS-Mental Stamina changes from baseline, effect size d (subjects [1]; [10]): −0.21
VAS-Mental Stamina rating, Mean (subjects [1]; [11]): 6.3
VAS-Mental Stamina changes from baseline, Mean Difference ± SE (subjects [1]; [12]): 0.16 ± 0.24
VAS-Mental Stamina changes from baseline, effect size d (subjects [1]; [12]): 0.15
VAS-Mental Stamina rating, Mean (subjects [1]; [13]): 6.6
VAS-Mental Stamina rating, Mean (subjects [1]; Day 0 (before supplementation)): 5.7
VAS-Motivation area under the curve, Mean (subjects [2]; [5]): 1113
VAS-Motivation area under the curve, Mean Difference ± SE (subjects [2]; [6]): 36.8 ± 37.4
VAS-Motivation area under the curve, effect size d (subjects [2]; [6]): 0.11
VAS-Motivation rating, Mean (subjects [2]; [7]): 5.7
VAS-Motivation changes from baseline, Mean Difference ± SE (subjects [2]; [8]): −0.07 ± 0.27
VAS-Motivation changes from baseline, effect size d (subjects [2]; [8]): −0.08
VAS-Motivation rating, Mean (subjects [2]; [9]): 6.2
VAS-Motivation changes from baseline, Mean Difference ± SE (subjects [2]; [10]): −0.25 ± 0.27
VAS-Motivation changes from baseline, effect size d (subjects [2]; [10]): −0.25
VAS-Motivation rating, Mean (subjects [2]; [11]): 6.2
VAS-Motivation changes from baseline, Mean Difference ± SE (subjects [2]; [12]): 0.53 ± 0.27
VAS-Motivation changes from baseline, effect size d (subjects [2]; [12]): 0.50
VAS-Motivation rating, Mean (subjects [2]; [13]): 6.6
VAS-Motivation rating, Mean (subjects [2]; Day 0 (before supplementation)): 5.8
VAS-Sustained Energy area under the curve, Mean (subjects [3]; [5]): 1073
VAS-Sustained Energy area under the curve, Mean Difference ± SE (subjects [3]; [6]): 45.2 ± 41.7
VAS-Sustained Energy area under the curve, effect size d (subjects [3]; [6]): −0.13
VAS-Sustained Energy rating, Mean (subjects [3]; [7]): 5.7
VAS-Sustained Energy changes from baseline, Mean Difference ± SE (subjects [3]; [8]): 0.22 ± 0.22
VAS-Sustained Energy changes from baseline, effect size d (subjects [3]; [8]): 0.27
VAS-Sustained Energy rating, Mean (subjects [3]; [9]): 6.2
VAS-Sustained Energy changes from baseline, Mean Difference ± SE (subjects [3]; [10]): −0.11 ± 0.25
VAS-Sustained Energy changes from baseline, effect size d (subjects [3]; [10]): −0.11
VAS-Sustained Energy rating, Mean (subjects [3]; [11]): 6.3
VAS-Sustained Energy changes from baseline, Mean Difference ± SE (subjects [3]; [12]): 0.24 ± 0.23
VAS-Sustained Energy changes from baseline, effect size d (subjects [3]; [12]): 0.24
VAS-Sustained Energy rating, Mean (subjects [3]; [13]): 6.5
VAS-Sustained Energy rating, Mean (subjects [3]; Day 0 (before supplementation)): 5.6
VAS-Sustained Energy Δ, effect size d (subjects [3]; 100 mg once daily, Day 4, 60 min): 0.86
VAS-Sustained Energy Δ, effect size d (subjects [3]; 100 mg once daily, Day 4, 120 min): 0.62
VAS-Sustained Energy Δ, effect size d (subjects [3]; 100 mg once daily, Day 4, 120 min, listed as B): 0.03
VAS-Sustained Energy Δ, effect size d (subjects [3]; 100 mg once daily, Day 4, 180 min): 0.62
VAS-Sustained Energy Δ from 0 min, Mean (subjects [3]; [14]): 0.85
VAS-Sustained Energy Δ, Mean Difference ± SE (subjects [3]; [14]): 0.74 ± 0.29
VAS-Sustained Energy Δ from 0 min, Mean (subjects [3]; [15]): 0.88
VAS-Sustained Energy Δ, Mean Difference ± SE (subjects [3]; [15]): 0.02 ± 0.35
VAS-Sustained Energy Δ from 0 min, Mean (subjects [3]; [16]): 1.28
VAS-Sustained Energy Δ, Mean Difference ± SE (subjects [3]; [16]): 0.72 ± 0.31
VAS-Mood area under the curve, Mean (subjects [4]; [5]): 1220
VAS-Mood area under the curve, Mean Difference ± SE (subjects [4]; [6]): 37.4 ± 250.7
VAS-Mood area under the curve, effect size d (subjects [4]; [6]): 0.12
VAS-Mood rating, Mean (subjects [4]; [7]): 6.1
VAS-Mood changes from baseline, Mean Difference ± SE (subjects [4]; [8]): 0.38 ± 0.18
VAS-Mood changes from baseline, effect size d (subjects [4]; [8]): 0.43
VAS-Mood rating, Mean (subjects [4]; [9]): 6.7
VAS-Mood changes from baseline, Mean Difference ± SE (subjects [4]; [10]): 0.45 ± 0.27
VAS-Mood changes from baseline, effect size d (subjects [4]; [10]): 0.41
VAS-Mood rating, Mean (subjects [4]; [11]): 7.0
VAS-Mood changes from baseline, Mean Difference ± SE (subjects [4]; [12]): 0.72 ± 0.30
VAS-Mood changes from baseline, effect size d (subjects [4]; [12]): 0.65
VAS-Mood rating, Mean (subjects [4]; [13]): 7.1
VAS-Mood rating, Mean (subjects [4]; Day 0 (before supplementation)): 6.5
